Results published in PMC5218480 (PLoS ONE, 2017).

Test system: MV-4-11 cells
Experiment: Gene expression microarray analysis (Affymetrix PrimeView) and GSEA
Type: cell-based, human
Parameters: RFU PODN (11730768_x_at) / Fold change /veh PODN (11730768_x_at) / RFU LINC00158 (11744669_a_at) / Fold change /veh LINC00158 (11744669_a_at) / RFU DUSP10 (11751237_a_at) / Fold change /veh DUSP10 (11751237_a_at) / RFU ID3 (11757404_x_at) / Fold change /veh ID3 (11757404_x_at) / RFU PLEKHG5 (11737974_s_at) / Fold change /veh PLEKHG5 (11737974_s_at) / RFU LRRC4B (11730491_at) / Fold change /veh LRRC4B (11730491_at) / RFU GIMAP4 (11747438_a_at) / Fold change /veh GIMAP4 (11747438_a_at) / RFU KRT8 (11758183_x_at) / Fold change /veh KRT8 (11758183_x_at) / RFU CNN1 (11734310_a_at) / Fold change /veh CNN1 (11734310_a_at) / RFU VPS37D (11726825_at) / Fold change /veh VPS37D (11726825_at) / RFU C10orf10 (11716522_x_at) / Fold change /veh C10orf10 (11716522_x_at) / RFU KIR2DL2 /// KIR2DL4 /// KIR2DL5A /// KIR2DL5B /// KIR2DS1 /// KIR2DS2 /// KIR2DS3 /// KIR2DS4 /// KIR3DL3 /// KIR3DL3 /// KIR3DS1 (11738374_at) / Fold change /veh KIR2DL2 /// KIR2DL4 /// KIR2DL5A /// KIR2DL5B /// KIR2DS1 /// KIR2DS2 /// KIR2DS3 /// KIR2DS4 /// KIR3DL3 /// KIR3DL3 /// KIR3DS1 (11738374_at) / RFU C1QL1 (11718748_at) / Fold change /veh C1QL1 (11718748_at) / RFU TMPRSS4 (11747572_a_at) / Fold change /veh TMPRSS4 (11747572_a_at) / RFU HAMP (11756126_x_at) / Fold change /veh HAMP (11756126_x_at) / RFU RNFT2 (11725882_a_at) / Fold change /veh RNFT2 (11725882_a_at) / RFU NR4A2 (11747474_a_at) / Fold change /veh NR4A2 (11747474_a_at) / RFU ABCC12 (11746883_a_at) / Fold change /veh ABCC12 (11746883_a_at) / RFU TMEM136 (11760407_x_at) / Fold change /veh TMEM136 (11760407_x_at) / RFU CLDN22 /// WWC2 (11732394_at) / Fold change /veh CLDN22 /// WWC2 (11732394_at) / RFU HLA-DPB1 (11760878_x_at) / Fold change /veh HLA-DPB1 (11760878_x_at) / RFU SPINT1 (11716480_a_at) / Fold change /veh SPINT1 (11716480_a_at) / RFU GAP43 (11754022_s_at) / Fold change /veh GAP43 (11754022_s_at) / RFU A4GNT (11735810_at) / Fold change /veh A4GNT (11735810_at) / RFU PRB3 (11715151_x_at) / Fold change /veh PRB3 (11715151_x_at) / RFU TUBB4B (11761932_at) / Fold change /veh TUBB4B (11761932_at) / RFU CAPN14 (11732068_a_at) / Fold change /veh CAPN14 (11732068_a_at) / RFU TMCC2 (11721928_a_at) / Fold change /veh TMCC2 (11721928_a_at) / RFU IRGQ (11745062_a_at) / Fold change /veh IRGQ (11745062_a_at) / RFU FAM174B (11720279_a_at) / Fold change /veh FAM174B (11720279_a_at) / RFU TMPRSS4 (11748680_a_at) / Fold change /veh TMPRSS4 (11748680_a_at) / RFU FAM212B (11763350_a_at) / Fold change /veh FAM212B (11763350_a_at) / RFU PLEKHG5 (11743358_a_at) / Fold change /veh PLEKHG5 (11743358_a_at) / RFU ZSCAN30 (11745921_a_at) / Fold change /veh ZSCAN30 (11745921_a_at) / RFU CMKLR1 (11741424_a_at) / Fold change /veh CMKLR1 (11741424_a_at) / RFU LOC101060620 /// MAPK8IP1 (11723275_at) / Fold change /veh LOC101060620 /// MAPK8IP1 (11723275_at) / RFU SPTSSB (11747773_x_at) / Fold change /veh SPTSSB (11747773_x_at) / RFU PRSS12 (11739890_at) / Fold change /veh PRSS12 (11739890_at) / RFU BIN1 (11741810_x_at) / Fold change /veh BIN1 (11741810_x_at) / RFU WNT11 (11732464_a_at) / Fold change /veh WNT11 (11732464_a_at) / RFU C10orf10 (11716521_a_at) / Fold change /veh C10orf10 (11716521_a_at) / RFU C5orf56 (11738089_at) / Fold change /veh C5orf56 (11738089_at) / RFU CYB561 (11721691_x_at) / Fold change /veh CYB561 (11721691_x_at) / RFU ANKRD19P (11752326_a_at) / Fold change /veh ANKRD19P (11752326_a_at) / RFU OR2T12 /// OR2T33 /// OR2T8 (11738714_s_at) / Fold change /veh OR2T12 /// OR2T33 /// OR2T8 (11738714_s_at) / RFU VCAN (11748164_a_at) / Fold change /veh VCAN (11748164_a_at) / RFU JSRP1 (11732532_at) / Fold change /veh JSRP1 (11732532_at) / RFU KRTAP10-11 (11738290_x_at) / Fold change /veh KRTAP10-11 (11738290_x_at) / RFU MYO3A (11730013_a_at) / Fold change /veh MYO3A (11730013_a_at) / RFU EBF3 (11725865_a_at) / Fold change /veh EBF3 (11725865_a_at) / RFU CAMK2N1 (11719241_x_at) / Fold change /veh CAMK2N1 (11719241_x_at) / RFU C5orf56 (11738088_a_at) / Fold change /veh C5orf56 (11738088_a_at) / RFU OLFML3 (11715873_a_at) / Fold change /veh OLFML3 (11715873_a_at) / RFU LOC100653217 /// NTM (11731650_a_at) / Fold change /veh LOC100653217 /// NTM (11731650_a_at) / RFU MAPK11 (11762145_a_at) / Fold change /veh MAPK11 (11762145_a_at) / RFU FIZ1 (11724087_x_at) / Fold change /veh FIZ1 (11724087_x_at) / RFU OASL (11726364_x_at) / Fold change /veh OASL (11726364_x_at) / RFU SOX15 (11748057_x_at) / Fold change /veh SOX15 (11748057_x_at) / RFU CD79A (11719716_a_at) / Fold change /veh CD79A (11719716_a_at) / RFU HIST1H1D (11736915_at) / Fold change /veh HIST1H1D (11736915_at) / RFU CASKIN2 (11723855_a_at) / Fold change /veh CASKIN2 (11723855_a_at) / RFU LOC730098 (11760151_x_at) / Fold change /veh LOC730098 (11760151_x_at) / RFU OR4N2 (11742367_at) / Fold change /veh OR4N2 (11742367_at) / RFU PRRT2 (11749266_a_at) / Fold change /veh PRRT2 (11749266_a_at) / RFU SNX32 (11753110_a_at) / Fold change /veh SNX32 (11753110_a_at) / RFU CDHR5 (11726645_a_at) / Fold change /veh CDHR5 (11726645_a_at) / RFU RCAN1 (11760418_a_at) / Fold change /veh RCAN1 (11760418_a_at) / RFU FAM167A (11723789_a_at) / Fold change /veh FAM167A (11723789_a_at) / RFU FAM26E (11764081_at) / Fold change /veh FAM26E (11764081_at) / RFU ISYNA1 (11749810_s_at) / Fold change /veh ISYNA1 (11749810_s_at) / RFU ACY1 (11761880_at) / Fold change /veh ACY1 (11761880_at) / RFU 11764098_at / Fold change /veh 11764098_at / RFU SAMD14 (11745864_x_at) / Fold change /veh SAMD14 (11745864_x_at) / RFU NPB (11741838_a_at) / Fold change /veh NPB (11741838_a_at) / RFU TMPRSS6 (11731388_a_at) / Fold change /veh TMPRSS6 (11731388_a_at) / RFU KRTAP10-2 (11738614_at) / Fold change /veh KRTAP10-2 (11738614_at) / RFU ARHGAP8 /// PRR5-ARHGAP8 (11727945_x_at) / Fold change /veh ARHGAP8 /// PRR5-ARHGAP8 (11727945_x_at) / RFU KRTAP5-7 /// NADSYN1 (11734609_at) / Fold change /veh KRTAP5-7 /// NADSYN1 (11734609_at) / RFU RASL12 (11751679_a_at) / Fold change /veh RASL12 (11751679_a_at) / RFU CDKN2B (11736163_a_at) / Fold change /veh CDKN2B (11736163_a_at) / RFU PRF1 (11729649_at) / Fold change /veh PRF1 (11729649_at) / RFU, ZNF638 /// ZNF638-IT1 / Fold change vs veh, ZNF638 /// ZNF638-IT1 / RFU, PANK3 / Fold change vs veh, PANK3 / RFU, SH3YL1 / Fold change vs veh, SH3YL1 / RFU, ZEB2 / Fold change vs veh, ZEB2 / RFU, NRIP1 / Fold change vs veh, NRIP1 / RFU, PTTG1IP / Fold change vs veh, PTTG1IP / RFU, CAPN2 / Fold change vs veh, CAPN2 / RFU, MED14 / Fold change vs veh, MED14 / RFU, SNORA58 / Fold change vs veh, SNORA58 / RFU, C1orf63 / Fold change vs veh, C1orf63 / RFU, LRRFIP1 / Fold change vs veh, LRRFIP1 / RFU, NDUFAF7 / Fold change vs veh, NDUFAF7 / RFU, SLC12A2 / Fold change vs veh, SLC12A2 / RFU, IBTK / Fold change vs veh, IBTK / RFU, ESF1 / Fold change vs veh, ESF1 / Fold change vs veh, TMEM50B / RFU, TAOK1 / Fold change vs veh, TAOK1 / RFU, ACBD3 / Fold change vs veh, ACBD3 / RFU, TMA16 / Fold change vs veh, TMA16 / RFU, RWDD3 / Fold change vs veh, RWDD3 / RFU, BCAT1 / Fold change vs veh, BCAT1 / RFU, EDEM3 / Fold change vs veh, EDEM3 / RFU, TMEM33 / Fold change vs veh, TMEM33 / RFU, WDR75 / Fold change vs veh, WDR75 / RFU, AHCTF1 / Fold change vs veh, AHCTF1 / RFU, TFRC / Fold change vs veh, TFRC / RFU, ZDHHC17 / Fold change vs veh, ZDHHC17 / RFU, NOM1 / Fold change vs veh, NOM1 / RFU, ARL8B / Fold change vs veh, ARL8B / RFU, ZBTB11 / Fold change vs veh, ZBTB11 / RFU, TAMM41 / Fold change vs veh, TAMM41 / RFU, KIAA1704 /// LOC100996395 / Fold change vs veh, KIAA1704 /// LOC100996395 / RFU, ING1 / Fold change vs veh, ING1 / RFU, TRMT61B / Fold change vs veh, TRMT61B / RFU, FUBP3 / Fold change vs veh, FUBP3 / RFU, TP53 / Fold change vs veh, TP53 / RFU, TNKS2 / Fold change vs veh, TNKS2 / RFU, ZFP14 / Fold change vs veh, ZFP14 / RFU, ACTR2 / Fold change vs veh, ACTR2 / RFU, PPP3R1 / Fold change vs veh, PPP3R1 / RFU, PIK3R1 / Fold change vs veh, PIK3R1 / RFU, HNRNPA1 / Fold change vs veh, HNRNPA1 / RFU, RNF170 / Fold change vs veh, RNF170 / RFU, ZNF28 / Fold change vs veh, ZNF28 / RFU, RNGTT / Fold change vs veh, RNGTT / RFU, OGT / Fold change vs veh, OGT / RFU, BRD1 / Fold change vs veh, BRD1 / RFU, MARS / Fold change vs veh, MARS / RFU, ZNF655 / Fold change vs veh, ZNF655 / RFU, FAHD1 / Fold change vs veh, FAHD1 / RFU, BDP1 / Fold change vs veh, BDP1 / RFU, LRRCC1 / Fold change vs veh, LRRCC1 / RFU, ARID1A / Fold change vs veh, ARID1A / RFU, ZNF146 / Fold change vs veh, ZNF146 / RFU, ZNF330 / Fold change vs veh, ZNF330 / RFU, GPN3 / Fold change vs veh, GPN3 / RFU, C9orf123 / Fold change vs veh, C9orf123 / RFU, N4BP2L2 / Fold change vs veh, N4BP2L2 / RFU, ARFIP1 / Fold change vs veh, ARFIP1 / RFU, FAM179B / Fold change vs veh, FAM179B / RFU, BCL10 / Fold change vs veh, BCL10 / RFU, UHRF1BP1L / Fold change vs veh, UHRF1BP1L / RFU, BET1 / Fold change vs veh, BET1 / RFU, CNOT2 / Fold change vs veh, CNOT2 / RFU, ZNF268 / Fold change vs veh, ZNF268 / Fold change vs veh, ZNF507 / RFU, DGCR2 / Fold change vs veh, DGCR2 / RFU, WDSUB1 / Fold change vs veh, WDSUB1 / Fold change vs veh, HSP90B1 /// MIR3652 / RFU, ADSS / Fold change vs veh, ADSS / RFU, GK / Fold change vs veh, GK / RFU, ZNF148 / Fold change vs veh, ZNF148 / RFU, TAF9 / Fold change vs veh, TAF9 / RFU, SLC1A5 / Fold change vs veh, SLC1A5 / RFU, SLMO2 / Fold change vs veh, SLMO2 / RFU, ABCC4 / Fold change vs veh, ABCC4 / RFU, LOC101060439 /// RAP1B / Fold change vs veh, LOC101060439 /// RAP1B / RFU, RFX7 / Fold change vs veh, RFX7 / RFU, GTPBP10 / Fold change vs veh, GTPBP10 / RFU, CNEP1R1 / Fold change vs veh, CNEP1R1 / RFU, BIVM-ERCC5 /// ERCC5 / Fold change vs veh, BIVM-ERCC5 /// ERCC5 / RFU, ILF3 / Fold change vs veh, ILF3 / RFU 11762660_at / Fold change /veh 11762660_at / RFU VCAN (11757783_s_at) / Fold change /veh VCAN (11757783_s_at) / RFU DDX43 (11728927_at) / Fold change /veh DDX43 (11728927_at) / RFU KRT8 (11758188_x_at) / Fold change /veh KRT8 (11758188_x_at) / RFU NKD1 (11759106_at) / Fold change /veh NKD1 (11759106_at) / RFU SRD5A1 (11742802_a_at) / Fold change /veh SRD5A1 (11742802_a_at) / RFU TPSAB1 /// TPSB2 (11721975_s_at) / Fold change /veh TPSAB1 /// TPSB2 (11721975_s_at) / RFU GSTM3 (11746129_a_at) / Fold change /veh GSTM3 (11746129_a_at) / RFU IL23R (11737362_x_at) / Fold change /veh IL23R (11737362_x_at) / RFU TMEM51 (11727254_a_at) / Fold change /veh TMEM51 (11727254_a_at) / RFU PIWIL2 (11732686_x_at) / Fold change /veh PIWIL2 (11732686_x_at) / RFU ORM1 (11744905_x_at) / Fold change /veh ORM1 (11744905_x_at) / RFU CCDC152 (11743942_at) / Fold change /veh CCDC152 (11743942_at) / RFU ECM1 (11717891_a_at) / Fold change /veh ECM1 (11717891_a_at) / RFU IL23R (11748794_a_at) / Fold change /veh IL23R (11748794_a_at) / RFU TNFAIP8L3 (11732012_x_at) / Fold change /veh TNFAIP8L3 (11732012_x_at) / RFU MBOAT4 (11741988_at) / Fold change /veh MBOAT4 (11741988_at) / RFU 11764193_at / Fold change /veh 11764193_at / RFU TMEM53 (11763286_at) / Fold change /veh TMEM53 (11763286_at) / RFU MAGEB2 (11727129_at) / Fold change /veh MAGEB2 (11727129_at) / RFU TMEM200A (11744735_a_at) / Fold change /veh TMEM200A (11744735_a_at) / RFU CCDC152 (11751479_a_at) / Fold change /veh CCDC152 (11751479_a_at) / RFU FAM211A (11726209_a_at) / Fold change /veh FAM211A (11726209_a_at) / RFU RGS16 (11746705_a_at) / Fold change /veh RGS16 (11746705_a_at) / RFU VCAN (11755009_s_at) / Fold change /veh VCAN (11755009_s_at) / RFU RHOB (11743442_s_at) / Fold change /veh RHOB (11743442_s_at) / RFU RGS16 (11720943_a_at) / Fold change /veh RGS16 (11720943_a_at) / RFU RGS16 (11720944_at) / Fold change /veh RGS16 (11720944_at) / RFU, VPS4B / Fold change vs veh, VPS4B / RFU, CREB1 / Fold change vs veh, CREB1 / RFU, DNAJC13 / Fold change vs veh, DNAJC13 / RFU, GNAQ / Fold change vs veh, GNAQ / RFU, CDK5R1 / Fold change vs veh, CDK5R1 / RFU, ZRANB3 / Fold change vs veh, ZRANB3 / RFU, CUL4A / Fold change vs veh, CUL4A / RFU, CCNY / Fold change vs veh, CCNY / RFU, UFL1 / Fold change vs veh, UFL1 / RFU, COG3 / Fold change vs veh, COG3 / RFU, DIAPH2 / Fold change vs veh, DIAPH2 / RFU, SKA2 / Fold change vs veh, SKA2 / RFU, AFF3 / Fold change vs veh, AFF3 / RFU, LMF1 / Fold change vs veh, LMF1 / RFU, IPO11 / Fold change vs veh, IPO11 / RFU, DFFB / Fold change vs veh, DFFB / RFU, FOXP1 / Fold change vs veh, FOXP1 / RFU, CARD8 / Fold change vs veh, CARD8 / RFU, STRN3 / Fold change vs veh, STRN3 / RFU, ADK / Fold change vs veh, ADK / RFU, RASSF2 / Fold change vs veh, RASSF2 / RFU, WIPF1 / Fold change vs veh, WIPF1 / RFU, LARP1B / Fold change vs veh, LARP1B / RFU, RASA1 / Fold change vs veh, RASA1 / RFU, RB1 / Fold change vs veh, RB1 / RFU, PPFIA1 / Fold change vs veh, PPFIA1 / RFU, MAT2A / Fold change vs veh, MAT2A / RFU, CCT5 / Fold change vs veh, CCT5 / RFU, WDR92 / Fold change vs veh, WDR92 / RFU, CUX1 / Fold change vs veh, CUX1 / RFU, TTC7A / Fold change vs veh, TTC7A / RFU, TMEM135 / Fold change vs veh, TMEM135 / RFU, DEPTOR / Fold change vs veh, DEPTOR / RFU, CPM / Fold change vs veh, CPM / RFU, DNAJB6 / Fold change vs veh, DNAJB6 / RFU, CACNA2D3 / Fold change vs veh, CACNA2D3 / RFU, DTX4 / Fold change vs veh, DTX4 / RFU, TFCP2 / Fold change vs veh, TFCP2 / RFU, GMCL1 /// GMCL1P1 / Fold change vs veh, GMCL1 /// GMCL1P1 / RFU, AEBP2 / Fold change vs veh, AEBP2 / RFU, SNHG1 /// SNORD22 /// SNORD25 /// SNORD26 /// SNORD27 /// SNORD28 /// SNORD29 /// SNORD31 / Fold change vs veh, SNHG1 /// SNORD22 /// SNORD25 /// SNORD26 /// SNORD27 /// SNORD28 /// SNORD29 /// SNORD31 / Fold change (Aza/veh), C12orf56 (ProbeSet 11735607_a_at) / Fold change (ACY-1035/veh), C12orf56 (ProbeSet 11735607_a_at) / Fold change (Aza/veh), FGFR1OP (ProbeSet 11751329_s_at) / Fold change (ACY-1035/veh), FGFR1OP (ProbeSet 11751329_s_at) / Fold change (Aza/veh), VPS36 (ProbeSet 11739960_a_at) / Fold change (ACY-1035/veh), VPS36 (ProbeSet 11739960_a_at) / RFU SYPL1 (11715823_x_at) / Fold change /veh SYPL1 (11715823_x_at) / RFU IGFBP7 (11715501_s_at) / Fold change /veh IGFBP7 (11715501_s_at) / RFU REEP3 (11722064_at) / Fold change /veh REEP3 (11722064_at) / RFU IGLL1 (11728026_x_at) / Fold change /veh IGLL1 (11728026_x_at): dose or concentration left out as unconfirmed
Conditions: MV-4-11 cells, 48 hours

Nc1ccc(-c2cccs2)cc1NC(=O)c1ccc2c(c1)cc(C1CC1)n2CCN1CCOCC1 [ACY-1035]
RFU 11764193_at: 28.66 RFU
